Calls of active or inactive are those of the source. For most assays here, no stated cut-off is given here; in the data, actives have a measured Kd and inactives only a lower limit.
Tests used:
[1] = target: Tyrosine-protein kinase Lyn (Homo sapiens, UniProt P07948)
[2] = target: Actin-related protein 2 (Homo sapiens, UniProt P61160)
[3] = target: Epidermal growth factor receptor (Homo sapiens, UniProt P00533)
[4] = target: Mitogen-activated protein kinase 8 (Homo sapiens, UniProt P45983)
[5] = target: T1, TGF-beta receptor type-1 (Homo sapiens, UniProt P36897)
T1 sequence (P36897 whole entry): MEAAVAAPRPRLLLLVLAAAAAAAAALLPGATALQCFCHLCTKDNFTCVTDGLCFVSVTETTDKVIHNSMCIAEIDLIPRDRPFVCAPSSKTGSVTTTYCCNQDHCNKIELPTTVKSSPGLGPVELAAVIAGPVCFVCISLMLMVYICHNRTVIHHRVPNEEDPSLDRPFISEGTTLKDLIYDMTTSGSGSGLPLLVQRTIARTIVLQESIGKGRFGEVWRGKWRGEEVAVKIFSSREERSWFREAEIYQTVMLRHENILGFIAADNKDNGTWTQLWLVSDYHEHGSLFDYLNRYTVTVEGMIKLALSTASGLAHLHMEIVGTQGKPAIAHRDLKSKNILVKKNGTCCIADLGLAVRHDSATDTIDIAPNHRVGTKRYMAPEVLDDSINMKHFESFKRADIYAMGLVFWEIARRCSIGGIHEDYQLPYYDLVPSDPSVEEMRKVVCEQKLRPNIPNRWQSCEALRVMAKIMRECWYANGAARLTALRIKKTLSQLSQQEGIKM

[6] = target: Serine/threonine-protein kinase MRCK beta (Homo sapiens, UniProt Q9Y5S2)
[7] = target: T2, Serine/threonine-protein kinase Nek3 (Homo sapiens, UniProt P51956)
T2 sequence (P51956 whole entry): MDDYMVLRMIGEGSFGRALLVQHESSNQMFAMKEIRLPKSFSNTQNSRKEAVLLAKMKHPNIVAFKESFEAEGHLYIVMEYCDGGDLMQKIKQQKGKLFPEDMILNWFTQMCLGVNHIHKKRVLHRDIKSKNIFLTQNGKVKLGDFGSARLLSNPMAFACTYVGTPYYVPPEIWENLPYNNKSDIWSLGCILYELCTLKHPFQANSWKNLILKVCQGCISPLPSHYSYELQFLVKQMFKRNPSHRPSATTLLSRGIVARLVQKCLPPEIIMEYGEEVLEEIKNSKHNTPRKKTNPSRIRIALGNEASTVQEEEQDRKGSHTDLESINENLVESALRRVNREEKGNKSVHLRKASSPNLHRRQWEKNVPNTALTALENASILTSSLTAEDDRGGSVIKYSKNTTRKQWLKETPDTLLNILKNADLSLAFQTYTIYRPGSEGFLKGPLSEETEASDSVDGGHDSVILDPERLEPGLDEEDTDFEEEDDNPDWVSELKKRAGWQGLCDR

[8] = target: T3, Serine/threonine-protein kinase PLK4 (Homo sapiens, UniProt O00444)
T3 sequence (O00444 whole entry): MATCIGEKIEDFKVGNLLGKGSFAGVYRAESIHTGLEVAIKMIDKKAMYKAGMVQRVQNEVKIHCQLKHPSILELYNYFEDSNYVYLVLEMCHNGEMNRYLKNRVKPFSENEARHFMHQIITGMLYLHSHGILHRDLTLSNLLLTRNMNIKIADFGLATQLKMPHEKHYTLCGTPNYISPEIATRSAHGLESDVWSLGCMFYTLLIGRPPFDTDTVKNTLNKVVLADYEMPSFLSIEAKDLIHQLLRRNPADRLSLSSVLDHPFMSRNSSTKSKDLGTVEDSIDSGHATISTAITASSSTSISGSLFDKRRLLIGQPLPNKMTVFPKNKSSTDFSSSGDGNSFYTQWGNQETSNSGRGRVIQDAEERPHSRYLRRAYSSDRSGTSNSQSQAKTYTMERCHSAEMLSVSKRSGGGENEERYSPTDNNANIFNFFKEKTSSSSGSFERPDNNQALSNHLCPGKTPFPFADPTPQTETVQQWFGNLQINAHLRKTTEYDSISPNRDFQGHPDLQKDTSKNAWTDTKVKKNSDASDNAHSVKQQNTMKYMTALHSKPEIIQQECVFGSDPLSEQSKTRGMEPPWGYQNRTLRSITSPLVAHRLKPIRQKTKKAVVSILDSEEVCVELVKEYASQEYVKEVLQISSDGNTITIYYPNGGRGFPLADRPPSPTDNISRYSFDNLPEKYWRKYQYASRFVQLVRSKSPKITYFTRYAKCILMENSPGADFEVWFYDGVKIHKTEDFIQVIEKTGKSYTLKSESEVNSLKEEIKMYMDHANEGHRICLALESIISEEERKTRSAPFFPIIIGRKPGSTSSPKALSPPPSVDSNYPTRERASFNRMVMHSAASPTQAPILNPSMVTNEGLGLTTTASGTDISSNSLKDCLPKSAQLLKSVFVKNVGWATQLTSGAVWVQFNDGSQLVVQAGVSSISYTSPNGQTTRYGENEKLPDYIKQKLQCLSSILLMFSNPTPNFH

[9] = target: Myosin-14 (Homo sapiens, UniProt Q7Z406)
[10] = target: Calcium/calmodulin-dependent protein kinase kinase 2 (Homo sapiens, UniProt Q96RR4)
[11] = target: T4, Activin receptor type-1 (Homo sapiens, UniProt Q04771)
T4 sequence (Q04771 whole entry): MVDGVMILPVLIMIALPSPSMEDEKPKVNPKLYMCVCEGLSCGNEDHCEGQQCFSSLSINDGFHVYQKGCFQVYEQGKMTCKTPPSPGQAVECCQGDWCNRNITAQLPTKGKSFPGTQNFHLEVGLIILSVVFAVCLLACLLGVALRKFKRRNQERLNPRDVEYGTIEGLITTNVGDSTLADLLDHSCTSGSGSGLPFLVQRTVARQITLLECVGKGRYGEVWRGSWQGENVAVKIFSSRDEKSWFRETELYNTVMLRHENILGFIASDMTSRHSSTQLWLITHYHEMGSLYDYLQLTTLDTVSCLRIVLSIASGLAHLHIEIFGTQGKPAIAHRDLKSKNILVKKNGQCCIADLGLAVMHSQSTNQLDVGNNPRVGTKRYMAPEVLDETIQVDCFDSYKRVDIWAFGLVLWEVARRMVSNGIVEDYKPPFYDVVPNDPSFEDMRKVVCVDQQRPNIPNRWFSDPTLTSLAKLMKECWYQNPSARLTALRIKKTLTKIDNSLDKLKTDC

Tyrosine-protein kinase Lyn, sequence (P07948 whole entry): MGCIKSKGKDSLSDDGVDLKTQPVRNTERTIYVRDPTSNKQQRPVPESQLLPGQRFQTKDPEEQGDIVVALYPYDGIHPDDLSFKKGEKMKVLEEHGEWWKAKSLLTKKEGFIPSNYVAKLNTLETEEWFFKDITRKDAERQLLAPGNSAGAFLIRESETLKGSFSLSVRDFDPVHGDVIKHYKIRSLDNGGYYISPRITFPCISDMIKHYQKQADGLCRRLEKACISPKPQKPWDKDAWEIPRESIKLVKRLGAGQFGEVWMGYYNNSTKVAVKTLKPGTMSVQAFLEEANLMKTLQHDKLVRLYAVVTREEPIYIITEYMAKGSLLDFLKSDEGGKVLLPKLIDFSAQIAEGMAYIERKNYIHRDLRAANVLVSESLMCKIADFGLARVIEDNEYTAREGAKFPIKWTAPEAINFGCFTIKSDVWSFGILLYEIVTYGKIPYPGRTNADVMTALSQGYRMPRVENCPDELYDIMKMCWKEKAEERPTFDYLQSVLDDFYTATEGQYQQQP
Mitogen-activated protein kinase 8, sequence (P45983 whole entry): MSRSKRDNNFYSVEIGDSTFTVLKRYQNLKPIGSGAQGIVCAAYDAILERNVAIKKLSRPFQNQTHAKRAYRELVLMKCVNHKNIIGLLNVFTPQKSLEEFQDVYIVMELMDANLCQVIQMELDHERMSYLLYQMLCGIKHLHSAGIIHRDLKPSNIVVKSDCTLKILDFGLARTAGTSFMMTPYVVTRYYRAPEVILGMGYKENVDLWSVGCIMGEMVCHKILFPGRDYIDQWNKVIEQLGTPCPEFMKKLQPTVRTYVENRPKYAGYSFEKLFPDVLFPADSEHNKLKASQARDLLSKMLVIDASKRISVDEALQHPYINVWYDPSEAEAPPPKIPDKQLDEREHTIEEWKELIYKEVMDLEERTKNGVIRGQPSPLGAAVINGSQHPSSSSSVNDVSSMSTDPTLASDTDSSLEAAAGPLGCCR
Calcium/calmodulin-dependent protein kinase kinase 2, sequence (Q96RR4 whole entry): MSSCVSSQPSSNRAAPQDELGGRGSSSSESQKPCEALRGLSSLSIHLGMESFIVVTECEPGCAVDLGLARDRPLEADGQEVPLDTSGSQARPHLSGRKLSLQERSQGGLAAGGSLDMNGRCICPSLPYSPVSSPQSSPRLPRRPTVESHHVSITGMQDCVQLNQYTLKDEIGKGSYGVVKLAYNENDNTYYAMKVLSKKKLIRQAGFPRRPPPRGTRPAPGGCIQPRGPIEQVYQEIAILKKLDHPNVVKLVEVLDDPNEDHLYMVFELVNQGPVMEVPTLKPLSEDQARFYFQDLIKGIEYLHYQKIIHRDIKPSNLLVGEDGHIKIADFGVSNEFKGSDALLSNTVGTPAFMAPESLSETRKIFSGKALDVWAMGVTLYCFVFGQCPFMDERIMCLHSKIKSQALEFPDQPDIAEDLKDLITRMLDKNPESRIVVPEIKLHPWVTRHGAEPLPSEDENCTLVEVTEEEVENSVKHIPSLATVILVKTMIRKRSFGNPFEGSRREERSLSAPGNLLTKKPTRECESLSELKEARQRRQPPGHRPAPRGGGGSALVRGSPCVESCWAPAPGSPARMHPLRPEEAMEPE
Serine/threonine-protein kinase MRCK beta, sequence (Q9Y5S2 whole entry): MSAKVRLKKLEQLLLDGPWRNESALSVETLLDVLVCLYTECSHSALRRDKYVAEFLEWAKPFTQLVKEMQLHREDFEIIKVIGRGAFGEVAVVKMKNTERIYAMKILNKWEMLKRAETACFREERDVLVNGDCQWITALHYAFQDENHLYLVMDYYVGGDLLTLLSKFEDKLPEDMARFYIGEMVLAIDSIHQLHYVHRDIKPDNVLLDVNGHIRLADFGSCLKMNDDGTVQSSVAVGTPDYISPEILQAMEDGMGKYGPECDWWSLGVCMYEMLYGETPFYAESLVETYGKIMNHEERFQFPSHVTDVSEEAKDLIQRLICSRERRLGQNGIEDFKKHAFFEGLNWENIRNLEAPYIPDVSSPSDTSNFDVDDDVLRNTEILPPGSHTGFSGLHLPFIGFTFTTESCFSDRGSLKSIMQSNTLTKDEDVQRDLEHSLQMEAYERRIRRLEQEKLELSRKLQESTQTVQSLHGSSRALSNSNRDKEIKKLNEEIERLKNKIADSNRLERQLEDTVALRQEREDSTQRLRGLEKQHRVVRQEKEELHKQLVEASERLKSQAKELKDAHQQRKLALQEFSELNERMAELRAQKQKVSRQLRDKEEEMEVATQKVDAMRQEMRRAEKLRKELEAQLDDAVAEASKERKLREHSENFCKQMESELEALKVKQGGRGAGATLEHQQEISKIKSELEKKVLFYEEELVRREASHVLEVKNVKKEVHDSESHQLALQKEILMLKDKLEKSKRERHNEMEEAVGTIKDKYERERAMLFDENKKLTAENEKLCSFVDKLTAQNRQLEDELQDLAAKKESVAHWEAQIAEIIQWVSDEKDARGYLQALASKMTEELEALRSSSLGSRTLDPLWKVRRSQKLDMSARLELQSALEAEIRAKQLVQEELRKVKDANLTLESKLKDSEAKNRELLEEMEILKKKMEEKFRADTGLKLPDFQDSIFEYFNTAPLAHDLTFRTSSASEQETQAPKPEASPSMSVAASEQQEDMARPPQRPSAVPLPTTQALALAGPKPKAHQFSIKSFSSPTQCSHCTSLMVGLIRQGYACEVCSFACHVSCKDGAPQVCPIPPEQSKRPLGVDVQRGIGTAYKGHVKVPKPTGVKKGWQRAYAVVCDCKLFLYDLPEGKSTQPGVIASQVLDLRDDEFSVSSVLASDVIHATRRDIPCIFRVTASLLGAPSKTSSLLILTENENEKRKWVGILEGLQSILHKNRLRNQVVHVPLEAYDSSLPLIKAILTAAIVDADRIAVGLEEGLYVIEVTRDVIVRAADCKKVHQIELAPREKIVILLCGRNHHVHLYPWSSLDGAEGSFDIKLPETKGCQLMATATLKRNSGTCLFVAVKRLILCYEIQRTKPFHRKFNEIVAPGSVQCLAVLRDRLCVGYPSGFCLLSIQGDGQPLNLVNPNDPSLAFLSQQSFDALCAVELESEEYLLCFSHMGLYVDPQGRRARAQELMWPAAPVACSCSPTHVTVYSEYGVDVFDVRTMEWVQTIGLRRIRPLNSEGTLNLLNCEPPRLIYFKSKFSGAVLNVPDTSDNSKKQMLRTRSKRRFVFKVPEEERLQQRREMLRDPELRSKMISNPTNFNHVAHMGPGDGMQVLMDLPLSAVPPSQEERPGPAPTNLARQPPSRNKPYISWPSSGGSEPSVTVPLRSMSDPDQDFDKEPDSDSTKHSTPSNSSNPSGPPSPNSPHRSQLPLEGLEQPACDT
Epidermal growth factor receptor, sequence (P00533 whole entry): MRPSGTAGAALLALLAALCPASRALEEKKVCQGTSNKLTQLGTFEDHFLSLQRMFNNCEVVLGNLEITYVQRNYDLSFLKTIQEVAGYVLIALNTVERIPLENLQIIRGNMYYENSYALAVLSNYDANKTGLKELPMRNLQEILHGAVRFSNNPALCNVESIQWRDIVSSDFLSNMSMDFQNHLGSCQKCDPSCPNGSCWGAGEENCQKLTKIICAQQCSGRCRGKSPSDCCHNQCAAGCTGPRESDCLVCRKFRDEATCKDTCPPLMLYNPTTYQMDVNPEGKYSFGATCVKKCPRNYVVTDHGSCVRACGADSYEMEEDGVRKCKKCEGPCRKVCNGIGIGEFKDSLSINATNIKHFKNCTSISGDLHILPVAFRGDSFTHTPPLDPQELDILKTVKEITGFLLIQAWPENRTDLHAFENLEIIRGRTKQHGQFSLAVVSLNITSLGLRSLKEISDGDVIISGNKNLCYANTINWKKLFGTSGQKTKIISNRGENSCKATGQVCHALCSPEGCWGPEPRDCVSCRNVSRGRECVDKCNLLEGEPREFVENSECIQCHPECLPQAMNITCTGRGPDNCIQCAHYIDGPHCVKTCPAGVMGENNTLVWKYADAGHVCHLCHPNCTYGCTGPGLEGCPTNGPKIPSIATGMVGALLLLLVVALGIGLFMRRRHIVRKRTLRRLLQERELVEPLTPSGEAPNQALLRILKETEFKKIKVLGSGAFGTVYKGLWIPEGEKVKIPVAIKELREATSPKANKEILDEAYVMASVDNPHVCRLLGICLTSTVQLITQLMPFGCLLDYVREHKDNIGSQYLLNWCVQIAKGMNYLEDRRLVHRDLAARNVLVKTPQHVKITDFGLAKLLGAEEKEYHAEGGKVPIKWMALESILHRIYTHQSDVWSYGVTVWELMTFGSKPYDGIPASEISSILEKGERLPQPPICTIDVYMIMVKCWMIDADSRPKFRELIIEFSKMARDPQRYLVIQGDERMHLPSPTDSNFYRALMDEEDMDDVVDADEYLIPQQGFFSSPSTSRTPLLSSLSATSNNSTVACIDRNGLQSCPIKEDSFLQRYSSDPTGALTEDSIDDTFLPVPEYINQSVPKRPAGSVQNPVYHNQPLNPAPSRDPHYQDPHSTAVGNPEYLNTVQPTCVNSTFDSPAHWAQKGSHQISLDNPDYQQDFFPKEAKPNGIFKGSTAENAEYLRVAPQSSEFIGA

| Kd [1] | Kd [2] | Kd [3] | Kd [4] | Kd [5] | Kd [6] | Kd [7] | Kd [8] | Kd [9] | Kd [10] | Kd [11] | SMILES |
| --- | --- | --- | --- | --- | --- | --- | --- | --- | --- | --- | --- |
| > 30 µM (inactive) | > 30 µM (inactive) | > 30 µM (inactive) | > 30 µM (inactive) | > 30 µM (inactive) | > 30 µM (inactive) | > 30 µM (inactive) | > 30 µM (inactive) | > 30 µM (inactive) | > 30 µM (inactive) | > 30 µM (inactive) | Cc1nc(NC(=O)N2CCC[C@H]2C(N)=O)sc1-c1ccnc(C(C)(C)C(F)(F)F)c1 [ALPELISIB] |
| > 30 µM (inactive) | > 30 µM (inactive) | > 30 µM (inactive) | > 30 µM (inactive) | > 30 µM (inactive) | > 30 µM (inactive) | > 30 µM (inactive) | > 30 µM (inactive) | > 30 µM (inactive) | > 30 µM (inactive) | > 30 µM (inactive) | Cc1csc(-c2nnc(Nc3ccc(Oc4ncccc4-c4ccnc(N)n4)cc3)c3ccccc23)c1 [AMG-900] |
| > 30 µM (inactive) | > 30 µM (inactive) | > 30 µM (inactive) | > 30 µM (inactive) | > 30 µM (inactive) | > 30 µM (inactive) | > 30 µM (inactive) | > 30 µM (inactive) | > 30 µM (inactive) | > 30 µM (inactive) | > 30 µM (inactive) | Cc1cc(C(=O)NOCCO)c(Nc2ccc(I)cc2F)n(C)c1=O [AZD-8330] |
| > 30 µM (inactive) | > 30 µM (inactive) | > 30 µM (inactive) | > 30 µM (inactive) | > 30 µM (inactive) | > 30 µM (inactive) | > 30 µM (inactive) | > 30 µM (inactive) | > 30 µM (inactive) | > 30 µM (inactive) | > 30 µM (inactive) | Cn1cnc2c(F)c(Nc3ccc(Br)cc3F)c(C(=O)NOCCO)cc21 [BINIMETINIB] |
| > 30 µM (inactive) | > 30 µM (inactive) | > 30 µM (inactive) | > 30 µM (inactive) | > 30 µM (inactive) | > 30 µM (inactive) | > 30 µM (inactive) | > 30 µM (inactive) | > 30 µM (inactive) | > 30 µM (inactive) | > 30 µM (inactive) | CCn1c(C(=O)N(C2CC2)C2CC2)cc2c3c(ncn3C)c(Nc3cc(C)n(C)n3)nc21 [BMS-911543] |
| > 30 µM (inactive) | > 30 µM (inactive) | > 30 µM (inactive) | > 30 µM (inactive) | > 30 µM (inactive) | > 30 µM (inactive) | > 30 µM (inactive) | > 30 µM (inactive) | > 30 µM (inactive) | > 30 µM (inactive) | > 30 µM (inactive) | COc1c(OCCCN2CCOCC2)ccc2c1N=C(NC(=O)c1cnc(N)nc1)N1CCN=C21 [COPANLISIB] |
| 2.76 µM (active) | > 30 µM (inactive) | > 30 µM (inactive) | > 30 µM (inactive) | > 30 µM (inactive) | > 30 µM (inactive) | > 30 µM (inactive) | > 30 µM (inactive) | > 30 µM (inactive) | > 30 µM (inactive) | > 30 µM (inactive) | CNC(=O)c1cccc2cc(Oc3ccnc4cc(OCC5(N)CC5)c(OC)cc34)ccc12 [LUCITANIB] |

More lines, now with the values behind:

| SMILES | Kd [1] | Kd [2] | Kd [3] | Kd [4] | Kd [5] | Kd [6] | Kd [7] | Kd [8] | Kd [9] | Kd [10] | Kd [11] |
| --- | --- | --- | --- | --- | --- | --- | --- | --- | --- | --- | --- |
| C[C@H]1CNCCCN1S(=O)(=O)c1cccc2cncc(F)c12 | > 30 µM (inactive) | > 30 µM (inactive) | > 30 µM (inactive) | > 30 µM (inactive) | > 30 µM (inactive) | > 30 µM (inactive) | > 30 µM (inactive) | 8.14 µM (active) | > 30 µM (inactive) | > 30 µM (inactive) | > 30 µM (inactive) |
| Cc1nc2cc(-c3nn(C(C)C)c4ncnc(N)c34)ccc2o1 | > 30 µM (inactive) | > 30 µM (inactive) | > 30 µM (inactive) | > 30 µM (inactive) | 2.47 µM (active) | > 30 µM (inactive) | > 30 µM (inactive) | > 30 µM (inactive) | > 30 µM (inactive) | > 30 µM (inactive) | 0.04 µM (active) |
| Nc1ncnc2c1c(-c1cccc(OCc3ccccc3)c1)cn2[C@H]1C[C@@H](CN2CCC2)C1 [AEW-541] | 2.44 µM (active) | > 30 µM (inactive) | > 30 µM (inactive) | > 30 µM (inactive) | > 30 µM (inactive) | > 30 µM (inactive) | > 30 µM (inactive) | > 30 µM (inactive) | > 30 µM (inactive) | > 30 µM (inactive) | 1.2 µM (active) |
| COc1cc([C@@H]2c3cc4c(cc3[C@H](O)[C@H]3COC(=O)[C@@H]23)OCO4)cc(OC)c1OC [AXL-1717] | > 30 µM (inactive) | > 30 µM (inactive) | > 30 µM (inactive) | > 30 µM (inactive) | > 30 µM (inactive) | > 30 µM (inactive) | > 30 µM (inactive) | > 30 µM (inactive) | > 30 µM (inactive) | > 30 µM (inactive) | > 30 µM (inactive) |
| O=C(Nc1nc2cccc(-c3ccc(CN4CCS(=O)(=O)CC4)cc3)n2n1)C1CC1 [FILGOTINIB] | > 30 µM (inactive) | > 30 µM (inactive) | > 30 µM (inactive) | > 30 µM (inactive) | > 30 µM (inactive) | > 30 µM (inactive) | > 30 µM (inactive) | > 30 µM (inactive) | > 30 µM (inactive) | 3.63 µM (active) | > 30 µM (inactive) |
| O=C(Nc1cc(C(F)(F)F)cc(C(F)(F)F)c1)c1cc(Cl)ccc1O [IMD-0354] | > 30 µM (inactive) | > 30 µM (inactive) | > 30 µM (inactive) | > 30 µM (inactive) | > 30 µM (inactive) | > 30 µM (inactive) | > 30 µM (inactive) | > 30 µM (inactive) | > 30 µM (inactive) | > 30 µM (inactive) | > 30 µM (inactive) |

Reference: ChEMBL document CHEMBL3991601, “The target landscape of clinical kinase drugs” (Science, 2017)
